Test results taken from patent publication US20110091875A1, “THREE-COMPONENT GENE EXPRESSION REPORTING SYSTEM FOR MAMMALIAN CELLS AND APPLICATIONS OF THE SAME” (National Chung Cheng University, priority 2009, published 2011).

Key:
Format in all cases: cell-based, human
SC6 cells = experiment: Growth of SC6 cells in medium with 5-aza-2′-deoxycytidine (cytotoxicity); conditions: screening medium with 25 μM 5-aza-2′-deoxycytidine
Procedure: Transfection of SC6 cells with me_Trip10 DNA,” of the above Example 4, were plated into each well of 6-well plates (1×10^4 cells/2 mL screening medium/well), followed by cultivation overnight in an incubator (37° C., 95% O2/5% CO2) to permit cell attachment. 10 mM 5-aza-2′-deoxycytidine (dissolved in DMSO) was subsequently added into each well to reach a final concentration of 25 μM (Day 0). Thereafter, medium changes were performed every two days with fresh screening medium supplemented with 25 μM 5-aza-2′-deoxycytidine. From the second time of medium change (Day 4), the screening medium was further supplemented with 10 ng/mL 17β-estradiol. Expression of EGFP in the SC6 cells was observed using an inverted fluorescence microscope prior to making the medium change, and photographs were recorded using a digital camera connected to the inverted fluorescence microscope.

Trip10 promoter [1] = experiment: Reactivation of inactivated Trip10 promoter by 5-aza-2′-deoxycytidine and 17β-estradiol (EGFP in SC6 cells); conditions: me_Trip10 DNA transfected SC6 cells
Procedure: The obtained photographs were analyzed via an image analyzing software Scion Image. Briefly, the photographs were divided into several regions by the Scion Image software, in which the EGFP signal in a region visually observed as a black region was defined as 0, and the EGFP signal in a region that was visually observed to have the strongest fluorescence was defined as 255. Thereafter, the EGFP intensity was obtained by summing up the EGFP signals in all the regions, followed by dividing by the total area of said regions. […] The transfection-treated SC6 cells, which were harvested two days after the third time of transfection according to the procedures set forth in the section, entitled “2. […] From the second time of medium change (Day 4), the screening medium was further supplemented with 10 ng/mL 17β-estradiol. Expression of EGFP in the SC6 cells was observed using an inverted fluorescence microscope prior to making the medium change, and photographs were recorded using a digital camera connected to the inverted fluorescence microscope.

Trip10 promoter [2] = experiment: Effect of 17β-estradiol upon the Trip10 promoter against DNA methylation (EGFP in SC6 cells); conditions: 10 ng/mL 17β-estradiol before; for EGFP intensity compared to 0 hr: during and after transfection with me_Trip10 DNA
Procedure: The obtained photographs were analyzed via an image analyzing software Scion Image. Briefly, the photographs were divided into several regions by the Scion Image software, in which the EGFP signal in a region visually observed as a black region was defined as 0, and the EGFP signal in a region that was visually observed to have the strongest fluorescence was defined as 255. Thereafter, the EGFP intensity was obtained by summing up the EGFP signals in all the regions, followed by dividing by the total area of said regions. Finally, the EGFP intensity at 0 hr was defined as 100%, and the EFGP intensity percentages of the EGFP intensities at other time points relative to that at 0 hr were calculated.
First, a proper amount of 17β-estradiol was dissolved in alcohol to form a stock solution having a concentration of 10 mg/mL. The SC6 cells as obtained in the above Example 3 were plated into each well of 6-well plates (1×10^5 cells/2 mL screening medium/well), followed by cultivation overnight in an incubator (37° C., […]/5% CO2) to permit cell attachment. […] After cultivation at 37° C. for 24 hours, the SC6 cells were transfected with 0.4 μg of single-stranded me_Trip10 DNA according to the transfection treatment as described in the section, entitled “2. Transfection of SC6 cells with me_Trip10 DNA” of the above Example 4, except that the growth medium was supplemented with 10 ng/mL 17β-estradiol and was added into each well until a final volume of 1 mL was reached.
The first time at which the liquid in each well was added to reach 1 mL was defined as Hour 0. Expression of EGFP in the SC6 cells was observed using an inverted fluorescence microscope at 0 hr, 24 hrs, 72 hrs and 120 hrs, respectively, and photographs were recorded using a digital camera connected to the inverted fluorescence microscope.

Nc1ncn([C@H]2C[C@H](O)[C@@H](CO)O2)c(=O)n1 [5-aza-2′-deoxycytidine]
cytotoxicity (SC6 cells): no cytotoxicity | EGFP intensity compared to Day 2 (100%) (Trip10 promoter [1]; Day 4, 25 μM 5-aza-2′-deoxycytidine alone): over 100% | reactivation of the Trip10 promoter / reversal of its methylation (Trip10 promoter [1]): insufficient to reactivate the Trip10 promoter

C[C@]12CC[C@@H]3c4ccc(O)cc4CC[C@H]3[C@@H]1CC[C@@H]2O [17β-estradiol]
methylation of Trip10 promoter induced by me_Trip10 DNA (Trip10 promoter [2]; during and after transfection): could be prevented from methylation | EGFP intensity compared to 0 hr (Trip10 promoter [2]; 72 hrs): about 150% | EGFP intensity compared to 0 hr (Trip10 promoter [2]; other time points (24 hrs, 120 hrs)): around 100%
